Experimental data published in patent US20150111835A1, “MODIFIED PEPTIDES AND THEIR USE FOR TREATING AUTOIMMUNE DISEASES” (CENTRE NATIONAL DE LA RECHERECHE SCIENTIFIQUE, priority 2011, published 2015).
pKd: −log10 of the molar value. Where a SMILES comes first, the peptide text is derived from it. [ ]: non-standard residue; d: D form. Met(O) = CS(=O)CC[C@H](N)C(=O)O; pS = N[C@@H](COP(=O)(O)O)C(=O)O

Legend:
[1] = Stability of the peptides at 37° C. in 10% (v/v) mannitol solution, HPLC peak area of intact peptide; assay type: physicochemical; settings: for 95% of stability (predicted): time to 95% stability from linear equation; for Linear equation of stability (%) versus days: slope: y = stability %, x = days; for Stability (%): 10% mannitol
Experimental: The stability of the peptide SEQ ID NO: 2 in which the serine at position 10 is phosphorylated and the methionine at position 4 is oxidized (P140(MO)), and the peptide SEQ ID NO: 1 in which the serine at position 10 is phosphorylated (P140) was measured at 37° C., in a solution of 10% (v/v) mannitol. For each peptide, 3 concentrations have been tested: 200, 100 and 50 μg/mL.
At the indicated time, the integrity of P140 and P140(MO) peptides was measured in saline by high-performance liquid chromatography from the area of the peak corresponding to the intact peptide.
Stability is measured by using the HPLC peak surface.

MRL/lpr mice [2] = experiment: Survival analysis in MRL/lpr lupus mice; assay type: in vivo, mouse; settings: female MRL/lpr mice, intravenous, from 5 weeks of age; NaCl control = 25 weeks
Experimental: (§1) Statistical tests were performed using GraphPad Prism version 5.0. The two-way ANOVA test was used to analyze statistical significance of proteinuria differences between control and peptide-treated groups of mice. Survival of control and P140 analogue-treated female MRL/lpr mice was analyzed by the Kaplan-Meier method, and the significance of differences was determined by the log-rank test. For the other variables, statistical significance was assessed using the Student's t-test. p values less than 0.05 were considered significant.
It has been determined that this mouse strain carries a mutation in the fas gene. Also, the MRL/lpr is a useful model to study behavioural and cognitive deficits found in autoimmune diseases and the efficacy of immunosuppressive agents [Monneaux et al., 2003, Eur. J. Immunol. 33,287-296].
Five-week-old female MRL/lpr mice received P140 or peptide P140(MO) intravenously as described (Monneaux et al., 2003, Eur. J. Immunol. 33,287-296). All experimental protocols were carried out with the approval of the local Institutional Animal Care and Use Committee (CREMEAS). As control, mice were injected with NaCl.
Twenty mice were used for each peptide or NaCl.

HSC70 protein = target: T1, HSC70 protein (Bos taurus, UniProt P19120); experiment: BIAcore binding of peptides to immobilized HSC70; parameters: species or system bovine; settings: for Rmax / KA / pKd / kd: 25° C., 1:1 Langmuir model; for Rmax: global fit; for KA / pKd / kd: same value given at each analyte concentration
T1 construct: purchased Stressgen
Experimental: BIAcore 3000 system (Biacore AB) was used to evaluate the binding of P140 peptides to HSC70 protein (Page et al., 2009, and 2011). Sensor chip CMS, surfactant P20, amine coupling kit containing N-hydroxysuccinimide (NHS) and N-ethyl-N′-dimethylaminopropyl carbodiimide (EDC), 2-(2-pyridinyldithio)ethaneamine (PDEA) and ethanolamine were from Biacore AB. Biosensor assays were performed with HBS-EP buffer as running buffer (10 mM HEPES, 150 mM NaCl, 3 mM EDTA, 0.005% surfactant P20, pH 7.4). The compounds were diluted in the running buffer. The sensor chip surface was regenerated after each experiment by injecting 10 μL of 10 mM HCl. Recombinant bovine HSC70 (Stressgen) was immobilized on flow cells of a CMS sensor chip through its thiol groups using 35 μL PDEA in 50 mM borate buffer, pH 8.3 on the NHS/EDC-activated matrix. Then, 35 μL of HSC70 (100 μg/mL in formate buffer, pH 4.3) were injected until a response of 13,000 response units (RU) corresponding to 13 ng/mm^2 of HSC70 was immobilized. Twenty μL of a 50 mM cysteine/1 M NaCl solution was used to saturate unoccupied sites on the chip. The direct binding measurement of P140 peptides to HSC70 was carried out at 25° C. with a constant flow rate of 20 μL/min. P140 peptide and analogues were injected in the flux at different concentrations for 3 min, followed by a dissociation phase of 3 min. The kinetic parameters were calculated using the BIAeval 3.1 software on a personal computer. Analysis was performed using the simple 1:1 Langmuir binding model. The specific binding profiles were obtained after subtracting the response signal from the control empty channel and from blank-buffer injection. The fitting to each model was judged by the χ^2 value and randomness of residue distribution compared to the theoretical model.

MRL/lpr mice [3] = experiment: Proteinuria analysis in MRL/lpr mice (Albustix); assay type: in vivo, mouse; settings: fresh urine, Albustix score over time (FIG. 3)
Experimental: as §1
Proteinuria of the above mice was measured in fresh urine using Albustix (Bayer Diagnostics) and was semi-quantitatively estimated according to a […] recommended by the manufacturer (no proteinuria=0; traces=1; 1+=2; 2+=3; 3+=4; 4+=5).

MRL/lpr mice [4] = experiment: Cellularity analysis (peripheral blood leucocytes) in MRL/lpr mice; assay type: in vivo, mouse; settings: 100 μg/100 μL single injection, peripheral blood 5 days after, efficacy at least similar to P140
Experimental: MRL/lpr mice were injected with 100 μg/100 μL of P140 or P140(MO) and cellularity (peripheral blood) was studied 5 days after this unique injection. The count includes all the leucocytes. In view of the low number of tested mice, a non parametric statistical test has been realised Mann-Whitney).

T1 sequence (P19120 whole entry): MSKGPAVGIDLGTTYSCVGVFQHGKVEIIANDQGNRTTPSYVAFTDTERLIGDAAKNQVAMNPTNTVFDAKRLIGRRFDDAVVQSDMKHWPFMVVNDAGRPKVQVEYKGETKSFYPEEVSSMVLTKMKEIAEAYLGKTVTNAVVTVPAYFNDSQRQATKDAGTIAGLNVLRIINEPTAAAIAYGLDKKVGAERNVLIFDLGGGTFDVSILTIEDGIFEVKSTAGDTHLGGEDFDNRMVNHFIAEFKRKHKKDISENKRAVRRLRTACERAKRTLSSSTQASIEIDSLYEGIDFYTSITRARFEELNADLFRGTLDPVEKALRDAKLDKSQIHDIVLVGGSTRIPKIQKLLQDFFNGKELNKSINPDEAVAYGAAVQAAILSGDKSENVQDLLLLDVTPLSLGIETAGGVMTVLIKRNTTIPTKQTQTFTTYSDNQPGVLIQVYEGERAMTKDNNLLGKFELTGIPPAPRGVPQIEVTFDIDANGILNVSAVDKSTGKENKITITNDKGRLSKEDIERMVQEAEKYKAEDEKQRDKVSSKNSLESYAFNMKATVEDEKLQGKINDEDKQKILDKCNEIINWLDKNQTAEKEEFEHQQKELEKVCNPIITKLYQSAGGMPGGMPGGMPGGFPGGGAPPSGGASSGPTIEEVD

Compound	95% of stability (predicted) ([1]; 50 μg/mL, 37° C.)	Linear equation of stability (%) versus days: slope ([1]; 50 μg/mL, 37° C.)	Stability (%) ([1]; 50 μg/mL, day 0, 37° C.)	Stability (%) ([1]; 50 μg/mL, day 20, 37° C.)	Stability (%) ([1]; 50 μg/mL, day 40, 37° C.)	Stability (%) ([1]; 50 μg/mL, day 100, 37° C.)	Linear equation of stability (%) versus days: slope ([1]; 100 μg/mL, 37° C.)	Stability (%) ([1]; 100 μg/mL, day 0, 37° C.)	Stability (%) ([1]; 100 μg/mL, day 20, 37° C.)	Stability (%) ([1]; 100 μg/mL, day 40, 37° C.)	Stability (%) ([1]; 100 μg/mL, day 100, 37° C.)	95% of stability (predicted) ([1]; 200 μg/mL, 37° C.)	Stability (%) ([1]; 200 μg/mL, day 0, 37° C.)	Stability (%) ([1]; 200 μg/mL, day 20, 37° C.)	Stability (%) ([1]; 200 μg/mL, day 40, 37° C.)	Stability (%) ([1]; 200 μg/mL, day 100, 37° C.)	Median survival (MRL/lpr mice [2])	Rmax (HSC70 protein; BIAcore)	KA (HSC70 protein; BIAcore)	pKd (HSC70 protein; BIAcore)	further results
CC[C@H](C)[C@H](NC(=O)[C@H](Cc1ccccc1)NC(=O)[C@H](C)NC(=O)[C@H](Cc1ccc(O)cc1)NC(=O)CNC(=O)[C@H](CCCNC(=N)N)NC(=O)[C@@H]1CCCN1C(=O)[C@H](CCCCN)NC(=O)CNC(=O)[C@H](COP(=O)(O)O)NC(=O)[C@H](CCCNC(=N)N)NC(=O)[C@H](CCCCN)NC(=O)[C@H](CO)NC(=O)[C@H](Cc1ccc(O)cc1)NC(=O)[C@@H](NC(=O)[C@H](CCSC)NC(=O)[C@H](Cc1c[nH]cn1)NC(=O)[C@@H](NC(=O)[C@@H](N)CCCNC(=N)N)[C@@H](C)CC)C(C)C)C(=O)N[C@@H](CCC(=O)O)C(=O)N[C@@H](Cc1ccc(O)cc1)C(=O)O [Compound P140] (H-RIHMVYSKR[pS]GKPRGYAFIEY-OH)	1 months	y = −0.099x +	100%	95.5%	93.2%	89.6%	y = −0.0612x +	100%	97.5%	96.2%	93.4%	6 months	100%	98.7%	98.5%	97.4%	29 weeks	83.3 RU	144000 M⁻¹	5.16	Stability (%) ([1]; 50 μg/mL, day 60, 37° C.): 91.5%; Stability (%) ([1]; 50 μg/mL, day 80, 37° C.): 90.3%; 95% of stability (predicted) ([1]; 100 μg/mL, 37° C.): 2 months; Stability (%) ([1]; 100 μg/mL, day 60, 37° C.): 95.5%; Stability (%) ([1]; 100 μg/mL, day 80, 37° C.): 94.5%; Linear equation of stability (%) versus days: slope ([1]; 200 μg/mL, 37° C.): y = −0.0238x +; Stability (%) ([1]; 200 μg/mL, day 60, 37° C.): 97.9%; Stability (%) ([1]; 200 μg/mL, day 80, 37° C.): 97.6%; kd (HSC70 protein; BIAcore): 0.00312 s⁻¹; Req (HSC70 protein; peptide 1.56 μM): 15.3 RU; kobs (HSC70 protein; peptide 1.56 μM): 0.00382 s⁻¹; Req (HSC70 protein; peptide 3.12 μM): 25.8 RU; kobs (HSC70 protein; peptide 3.12 μM): 0.00452 s⁻¹; Req (HSC70 protein; peptide 6.25 μM): 39.5 RU; kobs (HSC70 protein; peptide 6.25 μM): 0.00593 s⁻¹; Req (HSC70 protein; peptide 12.5 μM): 53.6 RU; kobs (HSC70 protein; peptide 12.5 μM): 0.00874 s⁻¹; Req (HSC70 protein; peptide 25 μM): 65.2 RU; kobs (HSC70 protein; peptide 25 μM): 0.0144 s⁻¹
CC[C@H](C)[C@H](NC(=O)[C@H](Cc1ccccc1)NC(=O)[C@H](C)NC(=O)[C@H](Cc1ccc(O)cc1)NC(=O)CNC(=O)[C@H](CCCNC(=N)N)NC(=O)[C@@H]1CCCN1C(=O)[C@H](CCCCN)NC(=O)CNC(=O)[C@H](COP(=O)(O)O)NC(=O)[C@H](CCCNC(=N)N)NC(=O)[C@H](CCCCN)NC(=O)[C@H](CO)NC(=O)[C@H](Cc1ccc(O)cc1)NC(=O)[C@@H](NC(=O)[C@H](CC[S+](C)[O-])NC(=O)[C@H](Cc1c[nH]cn1)NC(=O)[C@@H](NC(=O)[C@@H](N)CCCNC(=N)N)[C@@H](C)CC)C(C)C)C(=O)N[C@@H](CCC(=O)O)C(=O)N[C@@H](Cc1ccc(O)cc1)C(=O)O (some centres unmarked) [P140(MO), RIHM(O)VYSKRS(PO3H2)GKPRGYAFIEY] (H-RIH[Met(O)]VYSKR[pS]GKPRGYAFIEY-OH)	2 years	y = −0.0064x +	100%	100%	100%	99.4%	y = −0.0064x +	100%	99.1%	99.5%	99.1%	∞	100%	100%	100%	100%	> 40 weeks	39 RU	524000 M⁻¹	5.72	Stability over 100 days (in words) ([1]; all tested concentrations (50 to 200 μg/ml), 37° C.): stable; Proteinuria compared to untreated mice (MRL/lpr mice [3]): less important and appears lately; Peripheral hypercellularity (MRL/lpr mice [4]): able to decrease peripheral hypercellularity; Affinity for HSC70 compared with P140 (non-oxidized counterpart) (HSC70 protein; BIAcore): not statistically different; kd (HSC70 protein; BIAcore): 0.0022 s⁻¹; Req (HSC70 protein; peptide 1.56 μM): 17.6 RU; kobs (HSC70 protein; peptide 1.56 μM): 0.004 s⁻¹; Req (HSC70 protein; peptide 3.12 μM): 24.2 RU; kobs (HSC70 protein; peptide 3.12 μM): 0.0058 s⁻¹; Req (HSC70 protein; peptide 6.25 μM): 29.9 RU; kobs (HSC70 protein; peptide 6.25 μM): 0.0094 s⁻¹; Req (HSC70 protein; peptide 12.5 μM): 33.9 RU; kobs (HSC70 protein; peptide 12.5 μM): 0.0166 s⁻¹; Req (HSC70 protein; peptide 25 μM): 36.3 RU; kobs (HSC70 protein; peptide 25 μM): 0.031 s⁻¹
